# From patent publication US20210094922A1, “Dyes for Analysis of Soluble Protein Aggregates or Misfolded Protein Oligomers” (The Penn State Research Foundation, priority 2018, published 2021)
# Several values for one entry are separate records, joined by “and”; a condition that tells them apart may be missing. Equal entries are not always repeated.
# Assays:
# [1] = Photophysical parameters of fluorophores in glycerol; type: physicochemical; conditions: for B (brightness): calculated using B = Φϵ; for fluorescence in solvents with increasing concentrations of glycerol: glycerol:H2O mixtures; for Φ (quantum yield) / λem / λex / decrease in brightness relative to 3 / diminished quantum yield relative to 3: in glycerol; for λabs: maximum absorbance measured in glycerol; for ϵ (extinction coefficient): measured in glycerol
# Procedure: FP analogues (20 μM) were prepared in glycerol:H2O mixture with increasing glycerol concentrations. In addition, fluorescence intensity in 1,4-dioxane was measured to evaluate their response to polarity. Fluorescence measurement was carried out using a Tecan infinite M1000Pro fluorescence microplate reader at excitation and emission wavelengths as indicated. All readings were normalized against the fluorescence intensity in 100% glycerol as 1. Error bars: standard error (n=3).
# FP analogues (20 μM) were prepared in glycerol. Spectra were collected with emission wavelength of 420 nm for 1, 525 nm for 2, 620 nm for 3, 3a and 3b. All measurements were carried out using a Tecan infinite M1000Pro fluorescence microplate reader.
# FP analogues (20 μM) were prepared in glycerol. Spectra were collected with excitation wavelength of 370 nm for 1, 455 nm for 2, 530 nm for 3 and 3b, 485 nm for 3a. All measurements were carried out using a Tecan infinite M1000Pro fluorescence microplate reader.
# FP analogues (10 μM) were prepared in glycerol. Spectra were collected with 10 mm quartz cuvette. All measurements were carried out using Agilent 300 UV-Vis spectrophotometer.
# However, the quantum yield (QY, Φ=0.001 for 1 and Φ=0.027 for 2 in glycerol, Table 2) was much lower than that of a GFP (Φ=0.79).
# [2] = target: T1, α-synuclein (Homo sapiens, UniProt P37840); assay: α-synuclein aggregation assay, fluorogenic detection; type: biochemical; conditions: for stoichiometry of fluorescence intensity with α-syn concentration: 70 vs 140 μM α-syn
# T1 construct: made in house; host or cells: E. coli (pET29b vector)
# Procedure: Aggregation of α-synuclein was carried out using method described in the Supporting Information. Subsequently, half of reaction mixture was loaded on a 96-well plate to measure fluorescence intensity of 3 (a) or ThT (b) for the reaction mixture (T). The other half was centrifuged at 21,000 g for 30 minutes at 4° C. The supernatant fraction (S) and pellet fraction (P, after resuspension with a volume that was equal to that of the S fraction) were loaded on a 96-well plate to measure fluorescence intensity. 10 μM 3 or ThT was also incubated in buffer as a control. Parameters for fluorescence measurement: 3 (Ex=530 nm/Em=600 nm) and ThT (Ex=440 nm/Em=480 nm). Error bars: standard error (n=3).
# (§1) HEK293T cultures were seeded at 25% confluency 24 h prior to transfection in 12-well plate for time dependent fluorescence plate reader analysis or 35 mm glass bottom culture dishes (Poly-d-lysine coated, MatTek Corporation). Cells were grown in DMEM medium supplemented with 10% FBS and penicillin-streptomycin antibiotics until they reached 50-60% confluency. Transfection was performed using X-tremeGene™ 9 DNA transfection reagent (Roche). After 24 h of protein expression and co-translational labeling, medium was replaced with fresh DMEM to diffuse out unbound ligands. After 30 min, media was replaced by fresh DMEM medium containing DMSO vehicle or NaAsO2 (50 μM). Cells were incubated for 18 h, 37° C. in a CO2 incubator. Nuclear stain Hoechst 33342 ([…]) was added to the medium 30 min prior to confocal imaging. Aggregation Assays. α-synuclein: Aggregation solution contained 70 or 140 μM α-synuclein in 20 mM HEPES (pH 7.5) and 100 mM NaCl. 10 μM of 3 or ThT was added to the solution at the beginning of reaction. Previous studies have shown that the kinetics of α-synuclein aggregation is unaffected by the addition of ThT. A volume of 150 μL of the mixture was pipetted into a well of clear-bottom 96-well plate, which was subsequently sealed with Mylar plate sealers. The plate was loaded on a Heidolph vibrating platform shaker and shake at 1,350 rpm at 37° C. At indicated time points, fluorescence reading was obtained using a Tecan M1000Pro fluorescence plate reader. Fluorescence intensity was recorded at Ex=530 nm/Em=600 nm for 3 and Ex=450 nm/Em=480 nm for ThT. Each sample was run in triplicate or quadruplicate. SOD1(V31A): Aggregation was carried out with DPBS buffer containing indicated concentrations of EDTA that is used to chelate the structural metal of SOD1. Aggregation solution contained 42 μM SOD1(V31A) or SOD1(V31A)-Halo and […] of 3 was added to the solution at the beginning of reaction. Reaction was carried out quiescently at indicated temperatures. Fluorescence of 3 was measured at Ex=530 nm/Em=600 nm.
# [3] = Fluorescence of crystals of 3; type: physicochemical; conditions: crystal
# Description: (a) The crystal of 3 is fluorescent. The crystals were looped out and transferred to a 35 mm glass bottom dish. Images were taken using an inverted Biorad ZOE fluorescent cell imager. […] Reason of the dark image in the bright field is because light of an inverted microscope could not pass through the thick crystal. (b) Crystal structure and packing diagram of 3, with thermal ellipsoids drawn at 50% probability level.
# The fluorescence may arise from the tight crystal packing that inhibits TICT of 3 (FIG. 10b).
# [4] = Photostability of 3, absorbance under laser irradiation; type: physicochemical; conditions: 5 mW laser beam of 543 nm; glycerol and protein aggregates
# Description: The inventors also determined photostability of 3 by measuring its absorbance spectra in glycerol and protein aggregates. […] These photochemical properties make 3 suited for fluorescence microscopy.
# [5] = system: HeLa cells; assay: Stress-induced proteome aggregation in HeLa cells with 17-AAG (AggGlow); type: cell-based; conditions: 1 μM 17-AAG, 2.5 μM 3
# Description: (§2) Untreated cells remain dark as shown in right panel.
# (§3) 3 is used to monitor stress-induced proteome aggregation in HEK293T (human embryonic kidney) cells with a proteasome inhibitor MG132. […] The diffusive fluorescence structure indicates misfolded oligomers and the granular fluorescence structure indicates insoluble aggregates. Similar to this application, 3 was used to monitor stress-induced proteome aggregation in HeLa cells with a heat-shock protein 90 (Hsp90) inhibitor 17-AAG.
# [6] = system: HEK293T cells; assay: Stress-induced proteome aggregation in HEK293T cells with MG132 (AggGlow); type: cell-based, human; conditions: 5 μM MG132, 2.5 μM 3
# Description: as §2, §3
# [7] = target: T2, SOD1(V31A) (Homo sapiens, UniProt P00441, V32A); assay: Heat-induced SOD1(V31A) aggregation assay, fluorogenic detection; type: biochemical
# T2 construct: linker (TEV site)-Halo-His6 (C, cleaved yes); made in house; host or cells: E. coli BL21 DE3* (pET29b; pBAD σ32-I54N co-expressed)
# Procedure: (a) SOD1(V31A) aggregation (42 μM) was induced at 59° C. for 30 min in buffer (50 mM Tris-HCl, pH 7.5, 100 mM NaCl, 83 mM EDTA), in the presence of 3 (21 μM). Reaction mixture was illuminated by UV trans-illuminator before and after centrifugation at 21,000 g for 10 min at 4° C. (b) Fluorescence intensity of SOD1(V31A) aggregates (42 μM) in the presence of varying concentrations of 3. 100 μM of 3 in buffer was used as a control. Parameters for fluorescence measurement: 3 (Ex=530 nm/Em=600 nm). Error bars: standard error (n=3).
# as §1
# [8] = target: SOD1-A4V-Halo (Homo sapiens, UniProt P00441, A5V); assay: In vitro heat-induced aggregation of SOD1-A4V-Halo conjugates; type: biochemical
# Description: (B-C) Excitation and emission spectra of 4 (with misfolded oligomers of SOD1-A4V-Halo) and 5 (with insoluble aggregates of SOD1-A4V-Halo).
# The inventors installed Halo-tag reactive warhead to 2, resulting in 5.
# T2 sequence (P00441 whole entry V32A): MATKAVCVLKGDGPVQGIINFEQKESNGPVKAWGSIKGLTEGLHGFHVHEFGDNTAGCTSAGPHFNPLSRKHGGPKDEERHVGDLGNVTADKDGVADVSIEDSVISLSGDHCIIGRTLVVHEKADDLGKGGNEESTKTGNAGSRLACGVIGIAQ
# Sequence of SOD1-A4V-Halo (P00441 with tags, fused parts or gaps A5V): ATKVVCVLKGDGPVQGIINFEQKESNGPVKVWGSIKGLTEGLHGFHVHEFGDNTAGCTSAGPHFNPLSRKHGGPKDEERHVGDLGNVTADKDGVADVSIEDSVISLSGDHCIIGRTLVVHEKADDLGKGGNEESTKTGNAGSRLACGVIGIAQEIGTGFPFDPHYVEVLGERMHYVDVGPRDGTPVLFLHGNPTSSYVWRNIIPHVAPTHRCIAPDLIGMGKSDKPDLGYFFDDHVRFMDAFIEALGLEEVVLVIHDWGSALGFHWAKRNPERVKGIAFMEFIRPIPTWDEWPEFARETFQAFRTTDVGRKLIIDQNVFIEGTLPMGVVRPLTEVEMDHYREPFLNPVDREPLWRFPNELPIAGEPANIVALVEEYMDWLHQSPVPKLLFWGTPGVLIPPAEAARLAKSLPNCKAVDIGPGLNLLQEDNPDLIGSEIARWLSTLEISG
Structure (SMILES),B (brightness) [1],fluorescence in solvents with increasing concentrations of glycerol [1],Φ (quantum yield) [1],λem [1] [nm],λex [1] [nm],λabs [1] [nm],ϵ (extinction coefficient) [1],detection of soluble oligomers of α-syn [2],stoichiometry of fluorescence intensity with α-syn concentration [2],decrease in brightness relative to 3 [1] [fold],diminished quantum yield relative to 3 [1],further results
"CC1=N/C(=C\c2ccc(O)cc2)C(=O)N1CC(=O)OC(C)(C)C [Compound 1, (Z)-tert-butyl 2-(4-(4-(hydroxy)benzylidene)-2-methyl-5-oxo-4,5-dihydro-1H-imidazol-1-yl)acetate]",20.6 M⁻¹ cm⁻¹,elevated fluorescence,0.001,429,370,376,"20,592 M^−1cm^−1",–,–,–,–,–
"Cc1ccc2c(c1)sc(-c1ccc(N(C)C)cc1)[n+]2C.[Cl-] [Thioflavin T, thioflavin T, reference compound]",–,–,–,–,–,–,–,fails to detect soluble oligomers,such stoichiometry was absent,–,–,–
"CN(C)c1ccc(/C=C/C2=NC(=C\c3ccccc3)/C(=O)N2CC(=O)OC(C)(C)C)cc1 [Compound 3a, tert-butyl 2-((Z)-4-benzylidene-2-((E)-4-(dimethylamino)styryl)-5-oxo-4,5-dihydro-1H-imidazol-1-yl)acetate]","1,386 M^−1cm^−1",–,0.1,621,485,500,"13,863 M^−1cm^−1",–,–,~5,~50%,–
"CN(C)c1ccc(/C=C2N=C(/C=C/c3ccccc3)N(CC(=O)OC(C)(C)C)C\2=O)cc1 [Compound 3b, tert-butyl 2-((Z)-4-(4-(dimethylamino)benzylidene)-5-oxo-2-((E)-styryl)-4,5-dihydro-1H-imidazol-1-yl)acetate]","2,089 M^−1cm^−1",–,0.232,630,530,533,"9,004 M^−1cm^−1",–,–,~5,does not affect quantum yield,–
"CN(C)c1ccc(/C=C2N=C(/C=C/c3ccc(N(C)C)cc3)N(CC(=O)OC(C)(C)C)C\2=O)cc1 [Compound 3, tert-butyl 2-((Z)-4-(4-(dimethylamino)benzylidene)-2-((E)-4-(dimethylamino)styryl)-5-oxo-4,5-dihydro-1H-imidazol-1-yl)acetate]","8,786 M^−1cm^−1",–,0.22 and 0.221,629,530,530,"39,049 M^−1cm^−1",detects soluble oligomers via fluorescence increase,stoichiometric,–,–,"fluorescence of crystals [3]: exhibited fluorescence; drop of absorbance at 530 nm on irradiation [4]: 10%; fluorescence intensity with mature α-syn fibers ([2]; 70 μM α-syn): 0.52; fluorescence intensity with mature α-syn fibers ([2]; 140 μM α-syn): 1.0; time at which second phase of fluorescence increase was observed ([2]; fiber growth): 20 h; time at which second phase leveled off ([2]; fiber maturation): 36 h; time at which fluorescence reached a plateau ([2]; first phase): 8 h; time at which fluorescence started to increase ([2]; first phase, soluble oligomers): 4 h; fluorescence in stressed cells [5]: obvious fluorescence pattern was developed in the cytosol; fluorescence in stressed cells [6]: obvious fluorescence pattern was developed in the cytosol; kinetics of fluorescence increase versus protein misfolding (tryptophan fluorescence) [7]: identical to that of protein misfolding; kinetics of fluorescence increase versus turbidity ([7]; 54.5° C.): faster than that of turbidity; fraction in which fluorescence signal is found ([7]; after centrifugation): primarily found in the fraction of insoluble protein aggregates; quantum yield after aggregation of SOD1-V31A ([7]; incubated at 59° C.): 0.22; quantum yield before aggregation of SOD1-V31A ([7]; start value): 0.02"
"CC1=N/C(=C\c2ccc(N(C)C)cc2)C(=O)N1CC(=O)OC(C)(C)C [Compound 2, (Z)-tert-butyl 2-(4-(4-(dimethylamino)benzylidene)-2-methyl-5-oxo-4,5-dihydro-1H-imidazol-1-yl)acetate]",640 M⁻¹ cm⁻¹,elevated fluorescence,0.027,521,450,452,"23,718 M^−1cm^−1",–,–,–,–,which POI conformations activate fluorescence [8]: only activates fluorescence when POI forms insoluble aggregates
